Results on one compound are retold here after PMC11018852, “Scutellarin activates IDH1 to exert antitumor effects in hepatocellular carcinoma progression” (Cell Death & Disease, 2024).

The target of this assay is T1, IDH1 (Homo sapiens, UniProt O75874).
T1 construct: residues 1–414
Put plainly: biolayer interferometry on recombinant IDH1 (repeat Kd […]); supported by DSF, CETSA, LC-MS/MS adduct at Cys297, enzyme activation EC50 […]. The format is binding. For orientation: In BLI a coated tip is dipped into the sample, and binding shifts an interference pattern.

T1 sequence (O75874 whole entry, the tested form may be a part): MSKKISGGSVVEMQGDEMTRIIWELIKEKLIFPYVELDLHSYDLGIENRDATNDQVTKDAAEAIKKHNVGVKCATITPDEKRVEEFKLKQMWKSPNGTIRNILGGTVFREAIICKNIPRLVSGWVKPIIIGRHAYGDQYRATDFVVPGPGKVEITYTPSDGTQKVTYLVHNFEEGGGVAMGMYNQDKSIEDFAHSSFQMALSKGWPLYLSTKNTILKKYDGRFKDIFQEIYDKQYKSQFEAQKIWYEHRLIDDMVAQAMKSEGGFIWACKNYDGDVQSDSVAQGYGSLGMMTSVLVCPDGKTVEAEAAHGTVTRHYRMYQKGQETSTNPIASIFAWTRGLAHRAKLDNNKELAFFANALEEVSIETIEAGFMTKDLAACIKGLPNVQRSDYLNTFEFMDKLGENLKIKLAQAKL

One may read the Kd as a measure of binding affinity in units of concentration. For `O=C(O)[C@H]1O[C@@H](Oc2cc3oc(-c4ccc(O)cc4)cc(=O)c3c(O)c2O)[C@H](O)[C@@H](O)[C@@H]1O` [Scu, scutellarin], the dissociation constant (Kd) amounted to 11.5 µM.
